Reference: patent publication US9242969B2, “Biaryl amide compounds as kinase inhibitors” (Novartis AG, priority 2013, dated 2016)
pIC50: −log10 of the molar value.

Molecular target: C-Raf TR (Δ1-324 deletion mutant with activating mutations) (Homo sapiens (Human), UniProt P04049, Y340E/Y341E)
Assay type: biochemical
Conditions: truncated C-Raf (Δ1-324), ATP 3 uM, 10 nM biotinylated MEK1 kinase dead
Description: biotinylated Mek, Kinase dead approximately 10 nM
Pre-incubation time with compounds 30 minutes at room temperature
Reaction time 2 hours at room temperature
Plates were sealed and stored overnight in the dark at room temperature. Plates were counted in a Perkin Elmer Envision instrument.

C-Raf TR (Δ1-324 deletion mutant with activating mutations), sequence (P04049 325-648 Y340E/Y341E): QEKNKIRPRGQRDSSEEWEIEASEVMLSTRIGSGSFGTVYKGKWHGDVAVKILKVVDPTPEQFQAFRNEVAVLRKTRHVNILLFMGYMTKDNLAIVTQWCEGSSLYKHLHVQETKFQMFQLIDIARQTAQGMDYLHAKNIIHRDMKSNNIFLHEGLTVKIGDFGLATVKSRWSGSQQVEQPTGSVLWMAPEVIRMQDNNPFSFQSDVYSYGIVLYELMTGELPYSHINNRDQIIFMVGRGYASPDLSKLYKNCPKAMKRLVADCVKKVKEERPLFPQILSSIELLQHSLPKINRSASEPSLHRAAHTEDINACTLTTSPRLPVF

| SMILES | pIC50 |
| --- | --- |
| Cc1ccc(C(=O)Nc2cccc(C(F)(F)F)c2)cc1-c1ccnc(N2CCOCC2)c1 [Example 63, 4-Methyl-3-(2-morpholinopyridin-4-yl)-N-(3-(trifluoromethyl)phenyl)benzamide] | 9.29 |
| Cc1ccc(C(=O)Nc2cccc(C(F)(F)F)c2)cc1-c1nc(N2CCOCC2)cc(N2CCOCC2)n1 [Example 14, 3-(4,6-dimorpholinopyrimidin-2-yl)-4-methyl-N-(3-(trifluoromethyl)phenyl)benzamide] | 9.10 |
| Cc1ccc(NC(=O)c2cccc(C(F)(F)F)c2)cc1-c1cncc(N2CCOCC2)n1 [Example 118, N-(4-methyl-3-(6-morpholinopyrazin-2-yl)phenyl)-3-(trifluoromethyl)benzamide] | 9.51 |
| Cc1ccc(NC(=O)c2cccc(C(F)(F)F)c2)cc1-c1csc(N2CCOCC2)n1 [Example 199, N-(4-methyl-3-(2-morpholinothiazol-4-yl)phenyl)-3-(trifluoromethyl)benzamide] | 8.89 |
| Cc1ccc(NC(=O)c2cccc(C(F)(F)F)c2)cc1-c1cn(C)c(=O)c(N2CCOCC2)n1 [Example 119, N-(4-methyl-3-(4-methyl-6-morpholino-5-oxo-4,5-dihydropyrazin-2-yl)phenyl)-3-(trifluoromethyl)benzamide] | 9.57 |
